# Reference: PMC11284800 (Journal of Medicinal Chemistry, 2024)
# Values joined by “and” are separate entries in the source; they are usually repeats but may differ in a detail not shown here. Equal values may be shown once. Read-outs that look alike come from different tables or passages of the source.
# Key:
# mCB1R = details: at 1 μM; cited from earlier work
# rCB1R = details: cited from earlier work
# hCB2R = target: hCB2R; design: method as in PMID 29314831; details: cited from earlier work
# hCB1R [1] = details: cited from earlier work
# human CB2R = target: T1, human CB2R (Homo sapiens, UniProt P34972); assay: [3H]CP55,940 displacement assay on CHO membranes, CB2R; assay type: binding
# T1 construct: host or cells: CHO-K1 (CHOK1hCB2_bgal)
# [2] = tested on: human CB1R on live SNAP-CB1R-HEK293TR cells; assay type: cell-based
# Experimental: (§1) Human CB1R HEK293TR cells (same transfected cell line as for TR-FRET binding assay was used, see above) were maintained in a humidified environment at 37 °C and 5% CO2 in DMEM with 10% FBS containing blasticidin (5 μg/mL; Invitrogen) and (Zeocin; 20 μg/mL; Invitrogen).
# (§2) […] The cell nuclei were stained using 0.9 μM Hoechst 33342 for 1 h incubation. After replacement of medium to serum-free conditions without Phenol red (20 μL), fluorescent probes were added (10 μL) and tested at 250 nM concentration. In case of blocking experiments, nuclei-stained cells were incubated with inhibitors (5 μM) for 30 min under serum-free conditions before probe administration. Confocal live cell imaging was performed using the Opera Phenix High Content Screening System (Revvity) at 22 °C. The probe fluorescence was monitored by kinetic measurements of 10 min with a break for probe administration. The fluorescence of one image per sample was captured using a water immersion objective (63×, NA 1.15, field of view 0.21 × 0.21 mm) at each time point. Probe detection was realized using the appropriate laser for excitation and filter for fluorescence emission. Image acquisition parameters, including laser power, offset, and gain settings, were kept constant.
# [3] = target: T2, human CB1R on live SNAP-CB1R-HEK293TR cells (Homo sapiens, UniProt P21554); assay type: cell-based; details: 250 nM probe
# T2 construct: expressed in transfected cells; host or cells: HEK293TR (tetracycline-inducible)
# Experimental: as §1, §2
# hCB1R [4] = target: T3, hCB1R (Homo sapiens, UniProt P21554); assay: HTRF cAMP assay, agonist / inverse agonist mode; assay type: cell-based; design: expressed in transfected cells; host or cells: CHO
# Target sequence in this assay (P21554 whole entry): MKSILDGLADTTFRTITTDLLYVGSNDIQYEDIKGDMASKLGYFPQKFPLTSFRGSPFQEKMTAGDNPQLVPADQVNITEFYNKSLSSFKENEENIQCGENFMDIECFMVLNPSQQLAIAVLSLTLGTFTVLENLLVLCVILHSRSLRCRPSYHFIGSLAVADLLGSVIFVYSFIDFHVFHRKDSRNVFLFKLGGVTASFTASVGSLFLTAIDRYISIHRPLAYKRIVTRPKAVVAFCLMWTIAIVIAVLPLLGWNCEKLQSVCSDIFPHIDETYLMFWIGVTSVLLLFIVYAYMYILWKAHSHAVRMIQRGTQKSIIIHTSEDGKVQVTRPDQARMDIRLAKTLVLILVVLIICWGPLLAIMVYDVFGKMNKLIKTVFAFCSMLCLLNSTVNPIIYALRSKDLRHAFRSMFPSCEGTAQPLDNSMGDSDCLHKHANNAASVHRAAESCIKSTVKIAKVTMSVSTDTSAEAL
# hCB1R [5] = target: T3, hCB1R; assay: HTRF cAMP assay, antagonist mode (forskolin with CP55,940)
# Target sequence in this assay (P21554 whole entry): as above
# Experimental: The homogeneous time-resolved fluorescence (HTRF) cAMP assay was conducted following the manufacturer’s protocol for the cAMP-Gs Dynamic kit. […] After 15 min, reactions were stopped by the 1× cAMP-d2 conjugate in lysis buffer (5 μL/well), followed by 1× anti-cAMP cryptate conjugate in lysis buffer (5 μL/well). Following a 1 h incubation at room temperature, the plates were read in a Revvity Envision reader for time-resolved fluorescence resonance energy transfer detection at 620 and 665 nm. The HTRF ratio versus compound concentrations was plotted using Prism 8.1 (GraphPad). HTRF ratio = (signal 665 nm/signal 620 nm) × 10^4.
# [6] = Photophysical characterization in PBS; assay type: physicochemical; details: PBS pH 7.4
# hCB1R [7] = target: T3, hCB1R; assay: [3H]CP55,940 displacement assay on CHO membranes, CB1R; assay type: binding; design: host or cells: CHO-K1 (CHOK1hCB1_bgal)
# Target sequence in this assay (P21554 whole entry): as above
# CB2R-HEK293TR = target: T4, CB2R-HEK293TR (Homo sapiens, UniProt P34972); assay: Live cell confocal imaging, CB2R-HEK293TR cells; assay type: cell-based; details: 250 nM probe, induced CB2R expression
# T4 construct: expressed in transfected cells; host or cells: HEK293TR (tetracycline-inducible)
# Experimental: Cells were plated onto a 384-well microplate (PhenoPlate, Revvity), at a density of 3500 cells/well (40 μL) with 1 μg/mL tetracycline for receptor-inducible expression and incubated for 48 h. The cell nuclei were stained using 0.9 μM Hoechst 33342 for 1 h incubation. After replacement of medium to serum-free conditions without Phenol red (20 μL), fluorescent probes were added (10 μL) and tested at 250 nM concentration. In case of blocking experiments, nuclei-stained cells were incubated with inhibitors (5 μM) for 30 min under serum-free conditions before probe administration. Confocal live cell imaging was performed using the Opera Phenix High Content Screening System (Revvity) at 22 °C. The probe fluorescence was monitored by kinetic measurements of 10 min with a break for probe administration. The fluorescence of one image per sample was captured using a water immersion objective (63×, NA 1.15, field of view 0.21 × 0.21 mm) at each time point. Probe detection was realized using the appropriate laser for excitation and filter for fluorescence emission. Image acquisition parameters, including laser power, offset, and gain settings, were kept constant.
# hCB1R [8] = target: T3, hCB1R; assay: TR-FRET fluorescent ligand binding (saturation and kinetics), HEK293TR-hCB1R cell membranes; design: a truncated CB1R variant, CB1R91-472 was used to facilitate the FRET; expressed in transfected cells; host or cells: HEK293TR (tetracycline-inducible, pcDNA4/TO)
# Target sequence in this assay (P21554 91-472): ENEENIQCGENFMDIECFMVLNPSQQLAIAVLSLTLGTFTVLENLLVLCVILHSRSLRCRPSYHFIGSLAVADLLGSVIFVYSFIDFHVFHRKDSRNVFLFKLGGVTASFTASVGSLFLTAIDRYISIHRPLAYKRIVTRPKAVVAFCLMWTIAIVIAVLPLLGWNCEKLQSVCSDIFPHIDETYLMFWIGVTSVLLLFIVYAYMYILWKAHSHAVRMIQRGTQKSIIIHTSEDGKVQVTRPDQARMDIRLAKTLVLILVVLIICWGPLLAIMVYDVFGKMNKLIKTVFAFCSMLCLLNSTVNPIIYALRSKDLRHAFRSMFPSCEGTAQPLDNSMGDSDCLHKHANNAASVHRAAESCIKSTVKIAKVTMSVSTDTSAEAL
# [9] = fluorescent probe, direct association kinetics
# T2 sequence (P21554 91-472): as above
# T1 sequence (P34972 whole entry): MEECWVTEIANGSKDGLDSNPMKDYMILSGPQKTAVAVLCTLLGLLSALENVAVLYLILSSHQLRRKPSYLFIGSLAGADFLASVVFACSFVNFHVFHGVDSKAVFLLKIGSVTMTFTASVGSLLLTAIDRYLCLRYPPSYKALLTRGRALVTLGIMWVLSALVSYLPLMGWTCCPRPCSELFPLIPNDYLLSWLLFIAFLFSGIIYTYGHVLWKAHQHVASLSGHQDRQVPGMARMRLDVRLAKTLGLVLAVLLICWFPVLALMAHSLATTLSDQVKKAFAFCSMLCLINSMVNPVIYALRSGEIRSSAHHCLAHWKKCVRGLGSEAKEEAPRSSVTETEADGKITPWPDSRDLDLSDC
# T4 sequence (P34972 whole entry): as above
compound,measurement,setting,value
Cc1c(C(=O)NN2CCCCC2)nn(-c2ccc(Cl)cc2Cl)c1-c1ccc(-c2ccc(CCCNC(=O)c3ccc4c(c3)C(=O)OC43c4ccc(N(C)C)cc4Oc4cc(N(C)C)ccc43)cc2)cc1 [Compound T1117],Ki(mCB1R): displacement,mCB1R,10%
same,Kd,rCB1R,460 ± 80 nM
CCCCCCC(C)(C)c1cc(O)c2c(c1)OC(C)(C)[C@@H]1CC=C(CNC(=O)CCCCCNC(=O)c3ccc(-c4c5ccc(=N)c(S(=O)(=O)O)c-5oc5c(S(=O)(=O)O)c(N)ccc45)c(C(=O)O)c3)C[C@@H]21 [HU210-Alexa488],Ki,hCB2R,800 ± 200 nM
same,Ki,hCB1R [1],27 ± 4 nM
CCC(CC)(NC(=O)c1cc(-c2cc(C(F)(F)F)ccc2C(F)(F)F)n(C[C@H]2CCCO2)c1C)C(=O)NCCOCCOCCNC(=O)c1ccc2c(c1)C(=O)OC21c2ccc(N(C)C)cc2Oc2cc(N(C)C)ccc21 [Compound 29],hCB2R % displacement at 10 µM,"human CB2R; [3H]CP55,940 displacement at 10 µM compound, ± SEM",18 ± 5%
same,Ki,"human CB2R; read-out: hCB2R Ki, [3H]CP55,940 displacement, CHO membranes stably expressing human CB2R, means of three experiments",> 10000 nM
same,Staining of uninduced CB1R-HEK293TR cells,"[2]; 250 nM probe, no CB1R expression",no staining
same,Passive permeation of outer cell membrane,[2]; concluded from intracellular staining in live CB1R-HEK293TR cells,able to passively permeate the outer cell membrane
same,Staining of CB1R on induced CB1R-HEK293TR cells,[3]; confocal microscopy,selectively stain and visualize CB1R
same,Time to staining of CB1R,[3]; induced CB1R-HEK293TR cells,≤ 10 min
same,Emax,hCB1R [4],-64%
same,Functional activity at CB1R (in words),hCB1R [4]; CB1R cAMP HTRF assay,inverse agonists
same,Functional activity CB1R (cAMP assay) pEC50 or pIC50 ± SEM,"hCB1R [4]; inverse agonists, n.a. is no activity",6.99 ± 0.09
same,IC50,"hCB1R [4]; read-out: Functional activity (cAMP assay) IC50, cells stably expressing hCB1R, HTRF cAMP, inverse agonists, n.a. denotes no activity",102 nM
same,Antagonist activity (cAMP assay) pEC50 or pIC50 ± SEM,"hCB1R [5]; antagonist mode, n.a. is no activity",5.7 ± 0.16
same,Emax,hCB1R [5]; read-out: Variation of Emax,-88%
same,Abs (absorbance maximum),[6],555 nm
same,Em (emission maximum),[6],585 nm
same,QY (quantum yield),[6],36.60% and 37%
same,hCB1R pKi ± SEM,"hCB1R [7]; [3H]CP55,940 displacement, CHO membranes",5.68 ± 0.29
same,Ki(CB2R)/Ki(CB1R),hCB1R [7]; radioligand binding Ki ratio,> 4.8
same,Ki,"hCB1R [7]; read-out: hCB1R Ki, [3H]CP55,940 displacement, CHO membranes stably expressing human CB1R, means of three experiments",2080 nM
same,Staining of CB2R-HEK293TR cells,CB2R-HEK293TR,no staining
same,koff,hCB1R [8]; [9],0.00433 s⁻¹
same,kon,hCB1R [8]; [9],13500 M⁻¹ s⁻¹
same,residence time,"hCB1R [8]; fluorescent probe, read-out: RT (residence time)",3.85 min
same,Kd,"hCB1R [8]; read-out: kinetic KD, fluorescent probe",365 nM
same,Kd,"hCB1R [8]; read-out: saturation binding KD, TR-FRET saturation binding after 60 min",335 nM
